From article PMC8474110 (Journal of Medicinal Chemistry, 2021)
Read-outs that look alike come from different tables or passages of the source.

Tests used:
[1] = test system: human 92-1 uveal melanoma cells; assay: Wound healing assay (cell migration) in human 92-1 uveal melanoma cells; assay type: cell-based; settings: for effect on 92-1 cell migration: 3 μM, over 48 h time courses; for IC50: Homo sapiens, read-out: IC50, inhibition of 92-1 cell migration (wound healing)
Experimental: Finally, tumor cell migration was explored with the wound healing assay (Figure 7). (±)-1, (+)-1, and (−)-1 inhibited 92-1 cell migration over 48 h time courses (Figure 7A). […] In particular, the derivative (−)-1 exerted the highest antimigratory effects compared to the (+)-enantiomer (>10-fold) or the racemic mixture (±)-1 (>40-fold; Figure 7B). These actions closely mirror those observed in HREC migration (Figure 3) and could similarly reflect signaling through σ receptors by the HP-mII molecular component of the prodrugs, without VPA/HDAC involvement. Indeed, their differential potencies in motility inhibition (Figure 7) are aligned with increasing binding affinities for σ2 receptors from (±)-1 to (+)-1 and (−)-1 (Table 2), thus implicating the stereochemical diversity of HP-mII enantiomeric components as an underlying molecular mechanism able to regulate cell migration.
(§1) HREC and 92-1 cells (2.5 × 10^5 cells/well) were seeded into 24 well plates and grown to confluency. Confluent cell monolayers were scratched with a p200 pipet tip to create 1 mm wide wounds. After washing (three times) with PBS to remove cell debris, wounded monolayers were incubated for 48 h (37 °C) in the complete medium in the presence of the indicated treatments. HREC were treated for 48 h in the presence of (±)-1, (+)-1, or (−)-1 with or without VEGF-A (80 ng/mL), AC927, and PTZ. 92-1 cells were treated for 48 h in the presence of (±)-1, (+)-1, or (−)-1. Wound closure was monitored by photographs at 40X using a phase-contrast microscope in each culture condition and at each time point (0, 24, and 48 h for HREC and 0, 6, 24, 30, and 48 h for 92-1 cells). The numbers of cells toward the wounds were counted using ImageJ software (ImageJ 1.50e, National Institutes of Health, NIH, Bethesda, MD) and were quantified by measuring the distance traveled over time by both cell fronts into the wound area.

[2] = test system: HREC stimulated with VEGF-A; assay: Wound healing assay (cell motility) in HREC stimulated by VEGF-A; assay type: cell-based, human; settings: 48 h; for effect of AC927 cotreatment on the compound's inhibition of VEGF-A-mediated HREC motility: 5 μM compound + 2 μM AC927, 80 ng/mL VEGF-A; for effect of PTZ cotreatment on the compound's inhibition of VEGF-A-mediated HREC motility: 5 μM compound + 2 μM PTZ
Experimental: Unregulated stimulation of endothelial cell motility by VEGF-A underlies pathological angiogenesis.[41] Therefore, the effects of (±)-1, (+)-1, and (−)-1 on HREC motility stimulated by VEGF-A (80 ng/mL) were evaluated with the wound healing assays (Figures 3 and S3–S5). VEGF-A promoted HREC migration compared to untreated controls, inducing complete wound closures at 24 h (Figures S3–S5). […] Cotreatments with both AC927 and PTZ reduced (±)-1 and (+)-1 abilities to inhibit VEGF-A-mediated wound healing (Figure 3A,B). […] The representative images of HREC treated with VEGF-A and three prodrug derivatives after the scratch wound are shown in the Supporting Information (Figures S2–S4A).
as §1

human UM 92-1 cells = assay: Crystal violet proliferation assay in human UM 92-1 cells; assay type: cell-based; settings: for IC50: 48 h
Experimental: Then, actions on cell proliferation were examined by crystal violet staining (Figure 6).
HREC and human 92-1 cell (seeded 4 × 10^3 and grown for 24 h at optimum culture conditions) proliferation was measured using crystal violet staining after treatment in 96-well plates with the indicated concentrations of chemicals for an additional 48 h. Control cells received an equal volume of vehicle (DMSO). At the end of the treatment, each well was washed with phosphate-buffered saline (PBS). Following this, the cells were fixed (in 4% paraformaldehyde) and stained with crystal violet solution (0.5% in 20% methanol for HREC or 1% aqueous solution for 92-1 cells). Subsequently, the plate was washed with water and left to dry. Crystal violet staining was evaluated by measuring the absorbance at 570 nm or 590 nm, after crystal violet extraction with 10% acetic acid (at room temperature for 10 min), with a microplate reader with the plate reader (Synergy 2-BioTek). For quantification, each assay was carried out in triplicate.

[3] = Enzymatic stability (kinetics of enzymatic hydrolysis) in human plasma; assay type: in vitro ADME; settings: human plasma (80%), 37 °C; for half-life at 3.8 µM: pH 7.4, read-out: t1/2, enzymatic stability (converted)
Experimental: (§2) Enzymatic stability studies in rat and human plasma were performed for both the racemate and its enantiomers (Table 1). […] Considering the high stability of (±)-1 and its enantiomers in simulated physiological fluids and human plasma, these compounds could reach the target site without undergoing esterase metabolism.
(§3) Human plasma was purchased from 3H Biomedical (Uppsala, Sweden, Europe). Plasma aliquots (4 mL) were diluted with 0.02 M PBS (pH 7.4) to obtain a final volume of 5 mL containing 80% plasma. Studies were performed at 37 ± 0.5 °C using a shaking bath. Each experiment was started by adding a 10^–4 M drug stock solution (200 μL) to the preheated plasma. Hundred microliters of the thermostated medium was taken at various times, treated with cold methanol (500 μL) to precipitate plasma proteins, and centrifugated (5 min at 5000g). The supernatant was analyzed by HPLC to quantify the amount of the residual intact compound.

[4] = Enzymatic stability (kinetics of enzymatic hydrolysis) in rat plasma; assay type: in vitro ADME; settings: for half-life at 3.8 µM: plasma (80%), pH 7.4, read-out: t1/2, enzymatic stability (converted)
Experimental: as §2, §3

[5] = test system: HREC stimulated with VEGF-A; assay: Tube formation assay (Matrigel) in HREC stimulated with VEGF-A; assay type: cell-based, human; settings: 24 h; for effect on VEGF-A-stimulated tube formation in HREC: 5 μM
Experimental: To further explore effects on angiogenesis, tube formation assays with HREC were evaluated. Following seeding onto basement membranelike Matrigel and stimulation for 24 h with VEGF-A (80 ng/mL), HREC organized into networks of tubular structures mimicking capillary formation in neoangiogenesis (Figure 4A).
The tube formation assay was analyzed in vitro in BD Matrigel, following the manufacturer’s instructions (BD, Bedford). In brief, 96-well plates were coated with 50 μL of Matrigel and allowed to solidify at 37 °C for 2 h. HREC were seeded at 1.5 × 10^4 cells/well in 100 μL of medium with (±)-1, (+)-1, or (−)-1 in the presence or absence of VEGF-A (80 ng/mL), AC927, and PTZ. After […] of incubation, tubelike structures were photographed at 10× magnification using an inverted microscope (Leica DM IRB) equipped with a CCD camera. Tube formations were quantified with ImageJ software (NIH, Bethesda, MD).

[6] = Homo sapiens, read-out: IC50 on human 92-1 cells (proliferation, crystal violet), 48 h
[7] = read-out: IC50 on human 92-1 cells (proliferation, crystal violet)

## CCCC(CCC)C(=O)OC(CCCN1CCC(O)(c2ccc(Cl)cc2)CC1)c1ccc(F)cc1 (racemic) [(±)-1]
[1]
  effect on 92-1 cell migration: inhibited
[1]; 48 h
  IC50: 4.22 µM
[2]
  effect of AC927 cotreatment on the compound's inhibition of VEGF-A-mediated HREC motility: significantly, but partially, opposed
[2]; 80 ng/mL VEGF-A
  effect of PTZ cotreatment on the compound's inhibition of VEGF-A-mediated HREC motility: significantly, but partially, opposed
Human UM 92-1 cells; 5 μM compound, PTZ 2 μM, AC927 2 μM
  effect of PTZ, AC927 or their combination on the antiproliferative effects of the compound in 92-1 cells: did not perturb
Human UM 92-1 cells; [6]
  IC50: 5.46 µM
Human UM 92-1 cells; UM 92-1 cells
  antiproliferative effect with respect to VPA alone: about 400 fold
Human UM 92-1 cells; [7]
  IC50: 5.5 ± 0.74 µM
[3]
  Kobs, enzymatic stability: 0.011 ± 0.006 h^–1
  half-life at 3.8 µM: 60.5 ± 0.6 h
[4]
  Kobs, enzymatic stability: 2.96 ± 0.01 h^–1
  half-life at 3.8 µM: 0.234 ± 0.003 h
[5]; 5 μM compound + 2 μM AC927, 80 ng/mL VEGF-A
  effect of AC927 on the compound's action on VEGF-A-stimulated tube formation: partially and equally blocked
[5]; 5 μM compound + 2 μM PTZ, 80 ng/mL VEGF-A
  effect of PTZ on the compound's action on VEGF-A-stimulated tube formation: partially and equally blocked
[5]; 80 ng/mL VEGF-A
  effect on VEGF-A-stimulated tube formation in HREC: blocked

## CCCC(CCC)C(=O)O[C@H](CCCN1CCC(O)(c2ccc(Cl)cc2)CC1)c1ccc(F)cc1 [(+)-1]
[1]
  effect on 92-1 cell migration: inhibited
[1]; 48 h
  IC50: 1.15 µM
[2]
  effect of AC927 cotreatment on the compound's inhibition of VEGF-A-mediated HREC motility: reduced
[2]; 80 ng/mL VEGF-A
  effect of PTZ cotreatment on the compound's inhibition of VEGF-A-mediated HREC motility: significantly and completely blocked
Human UM 92-1 cells; [6]
  IC50: 4.95 µM
Human UM 92-1 cells; [7]
  IC50: 4.9 ± 0.58 µM
[3]
  Kobs, enzymatic stability: 0.012 ± 0.001 h^–1
  half-life at 3.8 µM: 58.2 ± 1.2 h
[4]
  Kobs, enzymatic stability: 1.60 ± 0.005 h^–1
  half-life at 3.8 µM: 0.434 ± 0.002 h
[5]; 80 ng/mL VEGF-A
  effect on VEGF-A-stimulated tube formation in HREC: blocked

## CCCC(CCC)C(=O)O[C@@H](CCCN1CCC(O)(c2ccc(Cl)cc2)CC1)c1ccc(F)cc1 [(−)-1]
[1]
  effect on 92-1 cell migration: inhibited
[1]; 92-1 cells, 48 h
  antimigratory effect compared to the (+)-enantiomer: > 10 fold
  antimigratory effect compared to the racemic mixture (±)-1: > 40 fold
[1]; 48 h
  IC50: 0.09 µM
[2]
  effect of AC927 cotreatment on the compound's inhibition of VEGF-A-mediated HREC motility: prevented, in part
[2]; 5 μM, 80 ng/mL VEGF-A
  effect on VEGF-A-mediated HREC migration (wound healing): highest reduction
Human UM 92-1 cells; [6]
  IC50: 4.45 µM
Human UM 92-1 cells; [7]
  IC50: 4.4 ± 0.68 µM
[3]
  Kobs, enzymatic stability: 0.01 ± 0.002 h^–1
  half-life at 3.8 µM: 70.3 ± 1.5 h
[4]
  Kobs, enzymatic stability: 2.15 ± 0.03 h^–1
  half-life at 3.8 µM: 0.322 ± 0.01 h
[5]; 80 ng/mL VEGF-A
  effect on VEGF-A-stimulated tube formation in HREC: blocked
